Measured values published in US7585833B2, “Malodor covering perfumery” (Givaudan Fragrances Corporation, priority 2005, dated 2009).

Tests used:
[1] = odor detection threshold, Table 3; cited from earlier work
[2] = Stability and malodor coverage evaluation of odorants in permanent hair color crème (10% ammonia); design: key to malodor coverage rating 1 Week RT / malodor coverage rating 1 Week Oven / malodor coverage rating 6 Weeks RT / malodor coverage rating 6 Weeks Oven / malodor coverage rating 2 Weeks RT / malodor coverage rating 2 Weeks Oven / malodor coverage rating 3 Weeks RT / malodor coverage rating 3 Weeks Oven / malodor coverage rating 4 Weeks RT / malodor coverage rating 4 Weeks Oven / malodor coverage rating 5 Weeks RT / malodor coverage rating 5 Weeks Oven: E: excellent; VG: very good; G: good coverage; key to odorant performance 1 Week RT / odorant performance 1 Week Oven / odorant performance 2 Weeks RT / odorant performance 2 Weeks Oven / odorant performance 3 Weeks RT / odorant performance 3 Weeks Oven / odorant performance 4 Weeks RT / odorant performance 4 Weeks Oven: E=excellent; VG=very good; G=good; F=fair; P=poor; conditions: for odorant performance 1 Week Oven / odorant performance 1 Week RT / odorant performance 2 Weeks Oven / odorant performance 2 Weeks RT / odorant performance 3 Weeks Oven / odorant performance 3 Weeks RT / odorant performance 4 Weeks Oven / odorant performance 4 Weeks RT: odorant at 0.2% in dye less permanent hair color crème (10% ammonia hydroxide); for odorant performance 1 Week Oven / odorant performance 2 Weeks Oven / odorant performance 3 Weeks Oven / odorant performance 4 Weeks Oven: oven temperature; for stability observation in the formulation: odorant at 0.2% in permanent hair color crème (10% ammonia hydroxide), remark beside the raw material
Description: The marks E, VG, G stand for excellent, very good and good coverage and are part of a 5 scale rating system. […] Odorants were put up at 0.2% in the formulation, and odorants were subjected to 6 week stability testing at room temperature (R.T.) and […] oven temperature. […] G=good, F=fair; P=poor).

For `CCOC(=O)CC1(C)OCCO1` [ethyl 2-methyl-1,3-dioxolane-2-acetate], the “ODT (ppb)” value [1] is listed as “less than 50 ppb”.

In the case of `CC/C=C\CCOC(C)=O` [cis-3-hexenyl acetate], the “odorant performance 1 Week Oven” value ([2]; 1 week) is reported as “G”, the “odorant performance 1 Week RT” value ([2]; 1 week, room temperature) is reported as “G” and the “odorant performance 2 Weeks Oven” value ([2]; 2 weeks) is reported as “G”. The “odorant performance 2 Weeks RT” value ([2]; 2 weeks, room temperature) was “G”, the “odorant performance 3 Weeks Oven” value ([2]; 3 weeks) was “F” and the “odorant performance 3 Weeks RT” value ([2]; 3 weeks, room temperature) was “F”. For the same compound, the “odorant performance 4 Weeks Oven” value ([2]; 4 weeks) was “F” and the “odorant performance 4 Weeks RT” value ([2]; 4 weeks, room temperature) was “F”.

For `CC1COCc2cc3c(cc21)C(C)(C)C(C)C3(C)C` (stereo not shown) [Galaxolide, 1,3,4,6,7,8-Hexahydro-4,6,6,7,8,8-hexamethylcyclopenta-γ-2-benzopyran], the “malodor coverage rating 1 Week Oven” value ([2]; 10% ammonia formulation, 1 week, oven at 37° C.) was “E”, the “malodor coverage rating 1 Week RT” value ([2]; 10% ammonia formulation, 1 week, room temperature) was “E” and the “malodor coverage rating 2 Weeks Oven” value ([2]; 10% ammonia formulation, 2 weeks, oven at 37° C.) was “VG”. For the same compound, the “malodor coverage rating 2 Weeks RT” value ([2]; 10% ammonia formulation, 2 weeks, room temperature) was “VG”, the “malodor coverage rating 3 Weeks Oven” value ([2]; 10% ammonia formulation, 3 weeks, oven at 37° C.) was “G” and the “malodor coverage rating 3 Weeks RT” value ([2]; 10% ammonia formulation, 3 weeks, room temperature) was “G”. For the same compound, the “malodor coverage rating 4 Weeks Oven” value ([2]; 10% ammonia formulation, 4 weeks, oven at 37° C.) was “G”, the “malodor coverage rating 4 Weeks RT” value ([2]; 10% ammonia formulation, 4 weeks, room temperature) was “G” and the “malodor coverage rating 5 Weeks Oven” value ([2]; 10% ammonia formulation, 5 weeks, oven at 37° C.) was “G”. For the same compound, the “malodor coverage rating 5 Weeks RT” value ([2]; 10% ammonia formulation, 5 weeks, room temperature) was “G”, the “malodor coverage rating 6 Weeks Oven” value ([2]; 10% ammonia formulation, 6 weeks, oven at 37° C.) was “G” and the “malodor coverage rating 6 Weeks RT” value ([2]; 10% ammonia formulation, 6 weeks, room temperature) was “G”.

With `C=CCOC(=O)COCCC(C)C` [ALLYL AMYL GLYCOLATE] the “odorant performance 1 Week Oven” value ([2]; 1 week) was “G”, the “odorant performance 1 Week RT” value ([2]; 1 week, room temperature) was “G” and the “odorant performance 2 Weeks Oven” value ([2]; 2 weeks) was “F”. The “odorant performance 2 Weeks RT” value ([2]; 2 weeks, room temperature) was “G”, the “odorant performance 3 Weeks Oven” value ([2]; 3 weeks) was “F” and the “odorant performance 3 Weeks RT” value ([2]; 3 weeks, room temperature) was “G”. The “odorant performance 4 Weeks Oven” value ([2]; 4 weeks) was “F” and the “odorant performance 4 Weeks RT” value ([2]; 4 weeks, room temperature) was “G”.

For `CC/C=C\CCC=O` [cis-4-heptenal], the “ODT (ppb)” value [1] is given as “less than 50 ppb”.

For `CCOC(=O)CC` [ethyl propionate], the “ODT (ppb)” value [1] is listed as “less than 50 ppb”.

In the case of `CC12CCC(CC1)C(C)(C)O2` [1,3,3-trimethyl-2-oxabicyclo[2.2.2]octane], the “ODT (ppb)” value [1] is listed as “less than 50 ppb”.

In the case of `CCOC(=O)C(C)CC` (stereo not shown) [ethyl-2-methylbutyrate], the “ODT (ppb)” value [1] is listed as “less than 50 ppb”.

For `CCCCCC(=O)CC` [3-octanone], the “ODT (ppb)” value [1] is listed as “less than 50 ppb”.

In the case of `CCCCCCC(C=O)=Cc1ccccc1` [Hexyl cinnamic aldehyde], the “odorant performance 1 Week Oven” value ([2]; 1 week) is reported as “G”, the “odorant performance 1 Week RT” value ([2]; 1 week, room temperature) is reported as “G” and the “odorant performance 2 Weeks Oven” value ([2]; 2 weeks) is reported as “G”. The “odorant performance 2 Weeks RT” value ([2]; 2 weeks, room temperature) was “G”, the “odorant performance 3 Weeks Oven” value ([2]; 3 weeks) was “G” and the “odorant performance 3 Weeks RT” value ([2]; 3 weeks, room temperature) was “G”. The “odorant performance 4 Weeks Oven” value ([2]; 4 weeks) was “G”, the “odorant performance 4 Weeks RT” value ([2]; 4 weeks, room temperature) was “G” and the “stability observation in the formulation” value [2] was “HEXYL CINNAMIC ALDEHYDE (cloudy)”.

For `CCCC(C)C(=O)OCC` (stereo not shown) [ethyl 2-methylpentanoate], the “ODT (ppb)” value [1] is given as “less than 50 ppb”.

For `CCCCCC(=O)OCC` [ethyl hexanoate], the “ODT (ppb)” value [1] is listed as “less than 50 ppb”.

In the case of `CCC/C=C/C=O` [TRANS-2-HEXENAL @ 10% DPG, TRANS-2-HEXENAL], the “odorant performance 1 Week Oven” value ([2]; 1 week) is reported as “F”, the “odorant performance 1 Week RT” value ([2]; 1 week, room temperature) is reported as “G” and the “odorant performance 2 Weeks Oven” value ([2]; 2 weeks) is reported as “F”. For the same compound, the “odorant performance 2 Weeks RT” value ([2]; 2 weeks, room temperature) was “G”, the “odorant performance 3 Weeks Oven” value ([2]; 3 weeks) was “F” and the “odorant performance 3 Weeks RT” value ([2]; 3 weeks, room temperature) was “G”. For the same compound, the “odorant performance 4 Weeks Oven” value ([2]; 4 weeks) was “F” and the “odorant performance 4 Weeks RT” value ([2]; 4 weeks, room temperature) was “F”.

For `CCOC(=O)CC(C)=O` [ETHYL ACETOACETATE], the “odorant performance 1 Week Oven” value ([2]; 1 week) was “F”, the “odorant performance 1 Week RT” value ([2]; 1 week, room temperature) was “F” and the “odorant performance 2 Weeks Oven” value ([2]; 2 weeks) was “F”. The “odorant performance 2 Weeks RT” value ([2]; 2 weeks, room temperature) was “F”, the “odorant performance 3 Weeks Oven” value ([2]; 3 weeks) was “F” and the “odorant performance 3 Weeks RT” value ([2]; 3 weeks, room temperature) was “F”. The “odorant performance 4 Weeks Oven” value ([2]; 4 weeks) was “F”, the “odorant performance 4 Weeks RT” value ([2]; 4 weeks, room temperature) was “F” and the “stability observation in the formulation” value [2] was “ETHYL ACETOACETATE (discolors in oven)”.

In the case of `C=CC(C)(O)CCC=C(C)C` (stereo not shown) [LINALOOL SYNTHETIC, LINALOOL], the “odorant performance 1 Week Oven” value ([2]; 1 week) is reported as “G”, the “odorant performance 1 Week RT” value ([2]; 1 week, room temperature) is reported as “G” and the “odorant performance 2 Weeks Oven” value ([2]; 2 weeks) is reported as “G”. For the same compound, the “odorant performance 2 Weeks RT” value ([2]; 2 weeks, room temperature) was “G”, the “odorant performance 3 Weeks Oven” value ([2]; 3 weeks) was “G” and the “odorant performance 3 Weeks RT” value ([2]; 3 weeks, room temperature) was “G”. For the same compound, the “odorant performance 4 Weeks Oven” value ([2]; 4 weeks) was “G” and the “odorant performance 4 Weeks RT” value ([2]; 4 weeks, room temperature) was “G”.

For `CCCOC(=O)CCC` [propyl butyrate], the “ODT (ppb)” value [1] is given as “less than 50 ppb”.

For `CCC(C)COC(C)=O` (stereo not drawn) [β-methyl butyl acetate], the “ODT (ppb)” value [1] is given as “less than 50 ppb”.

For `CC(C)CC1CC(C)(O)CCO1` (stereo not shown) [FLOROL], the “odorant performance 1 Week Oven” value ([2]; 1 week) was “F”, the “odorant performance 1 Week RT” value ([2]; 1 week, room temperature) was “F” and the “odorant performance 2 Weeks Oven” value ([2]; 2 weeks) was “P”. The “odorant performance 2 Weeks RT” value ([2]; 2 weeks, room temperature) was “P”, the “odorant performance 3 Weeks Oven” value ([2]; 3 weeks) was “P” and the “odorant performance 3 Weeks RT” value ([2]; 3 weeks, room temperature) was “P”. The “odorant performance 4 Weeks Oven” value ([2]; 4 weeks) was “P” and the “odorant performance 4 Weeks RT” value ([2]; 4 weeks, room temperature) was “P”.

In the case of `COC(=O)C=C1CCCC1` [methyl cyclopentylidene acetate], the “ODT (ppb)” value [1] is listed as “less than 50 ppb”.

For `CCCCCC=O` [hexanal], the “ODT (ppb)” value [1] is listed as “less than 50 ppb”.

For `CCOC(=O)CC(C)C` [ethyl 3-methylbutanoate], the “ODT (ppb)” value [1] is listed as “less than 50 ppb”.

With `CC1CC=CCCCCCCCCCC(=O)C1` (stereo not shown) [MUSCENONE @ 10% DPG] the “odorant performance 1 Week Oven” value ([2]; 1 week) was “F”, the “odorant performance 1 Week RT” value ([2]; 1 week, room temperature) was “F” and the “odorant performance 2 Weeks Oven” value ([2]; 2 weeks) was “F”. For the same compound, the “odorant performance 2 Weeks RT” value ([2]; 2 weeks, room temperature) was “F”, the “odorant performance 3 Weeks Oven” value ([2]; 3 weeks) was “F” and the “odorant performance 3 Weeks RT” value ([2]; 3 weeks, room temperature) was “F”. The “odorant performance 4 Weeks Oven” value ([2]; 4 weeks) was “F” and the “odorant performance 4 Weeks RT” value ([2]; 4 weeks, room temperature) was “F”.

With `O=C(OCc1ccccc1)c1ccccc1O` [BENZYL SALICYLATE] the “odorant performance 1 Week Oven” value ([2]; 1 week) was “G”, the “odorant performance 1 Week RT” value ([2]; 1 week, room temperature) was “G” and the “odorant performance 2 Weeks Oven” value ([2]; 2 weeks) was “G”. The “odorant performance 2 Weeks RT” value ([2]; 2 weeks, room temperature) was “G”, the “odorant performance 3 Weeks Oven” value ([2]; 3 weeks) was “F” and the “odorant performance 3 Weeks RT” value ([2]; 3 weeks, room temperature) was “F”. For the same compound, the “odorant performance 4 Weeks Oven” value ([2]; 4 weeks) was “F” and the “odorant performance 4 Weeks RT” value ([2]; 4 weeks, room temperature) was “F”.

In the case of `CCCCCCOC(C)=O` [hexyl acetate], the “ODT (ppb)” value [1] is given as “less than 50 ppb”.

For `CCCCCOC(C)=O` [pentyl acetate], the “ODT (ppb)” value [1] is listed as “less than 50 ppb”.

For `CC/C=C\CCOC(=O)OC` [cis-3-hexenyl methyl carbonate], the “ODT (ppb)” value [1] is listed as “less than 50 ppb”.

For `CC(C)=CCCC(C)C=O` (stereo not shown) [2,6-dimethyl-5-heptenal], the “ODT (ppb)” value [1] is given as “less than 50 ppb”.

For `CCCCCCOC` [methyl hexyl ether], the “ODT (ppb)” value [1] is listed as “less than 50 ppb”.

For `CCCC(=O)OCC` [ethyl butyrate], the “ODT (ppb)” value [1] is listed as “less than 50 ppb”.

With `CCc1ccc(CC(C)(C)C=O)cc1` [FLORALOZONE] the “odorant performance 1 Week Oven” value ([2]; 1 week) was “G”, the “odorant performance 1 Week RT” value ([2]; 1 week, room temperature) was “G” and the “odorant performance 2 Weeks Oven” value ([2]; 2 weeks) was “G”. The “odorant performance 2 Weeks RT” value ([2]; 2 weeks, room temperature) was “G”, the “odorant performance 3 Weeks Oven” value ([2]; 3 weeks) was “G” and the “odorant performance 3 Weeks RT” value ([2]; 3 weeks, room temperature) was “G”. The “odorant performance 4 Weeks Oven” value ([2]; 4 weeks) was “G” and the “odorant performance 4 Weeks RT” value ([2]; 4 weeks, room temperature) was “G”.

For `CC(C=O)Cc1ccc(C(C)(C)C)cc1` (stereo not drawn) [Lilial, p-t-Butyl-α-methylhydrocinnamic aldehyde], the “odorant performance 1 Week Oven” value ([2]; 1 week) was “G”, the “odorant performance 1 Week RT” value ([2]; 1 week, room temperature) was “G” and the “odorant performance 2 Weeks Oven” value ([2]; 2 weeks) was “G”. The “odorant performance 2 Weeks RT” value ([2]; 2 weeks, room temperature) was “G”, the “odorant performance 3 Weeks Oven” value ([2]; 3 weeks) was “G” and the “odorant performance 3 Weeks RT” value ([2]; 3 weeks, room temperature) was “G”. For the same compound, the “odorant performance 4 Weeks Oven” value ([2]; 4 weeks) was “G” and the “odorant performance 4 Weeks RT” value ([2]; 4 weeks, room temperature) was “G”.
